≈ marks a conversion by molar mass, not a printed value. Like-named read-outs stand apart in the source and are kept apart here.
What was measured:
[1] = system: C. albicans ATCC MYA-2876(S) (strain C); experiment: MIC determination, in vitro antifungal assay (CLSI M27-A3); format: cell-based, Candida albicans; settings: Candida albicans, 48 h, MIC-0, 48 h at 35° C., read-out: MIC
Protocol: (§1) The activity of N,N′-diaryl-bishydrazones 7-22 was tested against a panel of seven strains of C. albicans: ATCC 10231(R) (A), ATCC 64124(R) (B), ATCC MYA-2876(S) (C), ATCC 90819(R) (D), ATCC MYA-2310(S) (E), ATCC MYA-1237(R) (F), and ATCC MYA-1003(R) (G). The activity of these bishydrazones 7-22 was also explored against a panel of three non-albicans Candida strains: C. glabrata ATCC 2001 (H), C. krusei ATCC 6258 (I), and C. parapsilosis ATCC 22019 (J). Finally, the activity of these bishydrazones 7-22 was explored against three Aspergillus strains: A. flavus ATCC MYA-3631 (K), A. nidulans ATCC 38163 (L), and A. terreus ATCC MYA-3633 (M).
(§2) Candida albicans ATCC 10231 (A), C. albicans ATCC 64124 (B), and C. albicans ATCC MYA-2876 (C) were kindly provided by Dr. Jon Y. Takemoto (Utah State University, Logan, UT, USA). C. albicans ATCC 90819 (D), C. albicans ATCC MYA-2310 (E), C. albicans ATCC MYA-1237 (F), C. albicans ATCC MYA-1003 (G), Candida glabrata ATCC 2001 (H), Candida krusei ATCC 6258 (I), Candida parapsilosis ATCC 22019 (J), Aspergillus flavus ATCC MYA-3631 (K), and Aspergillus terreus ATCC MYA-3633 (M) were obtained from the American Type Culture Collection (ATCC; Manassas, VA, USA). Aspergillus nidulans ATCC 38163 (L) was received from Dr. Jon S. Thorson (University of Kentucky, Lexington, KY, USA). Filamentous fungi and yeasts were cultivated at 35° C. in RPMI 1640 medium (with 1-glutamine, without sodium biocarbonate, Sigma-Aldrich, St. Louis, MO) buffered to a pH of 7.0 with 0.165 M morpholinepropanesulfonic acid (MOPS) buffer (Sigma-Aldrich).
(§3) A single colony of freshly prepared yeast cells was used to inoculate 5 mL of yeast extract peptone dextrose (YPD) broth prior to incubation overnight with shaking at 200 rpm at 35° C. From the actively growing yeast culture, 100 μL were then transferred to 900 μL of sterile ddH2O and re-adjusted to achieve OD600 of 0.12 (˜1×10^6 CFU/mL). The cell suspension was further diluted to achieve 2-4×10^3 CFU/mL in RPMI 1640 medium. […] The final concentration of DMSO was ensured to be <1.25% in all experiments.

[2] = system: C. albicans ATCC MYA-1003(R) (strain G); experiment: as above; format: cell-based, Candida albicans; settings: Candida albicans, 48 h, MIC-0, 48 h at 35° C., read-out: MIC
Protocol: as §1, §2, §3

[3] = system: various yeast strains and filamentous fungi (strains A-M); experiment: Antifungal activity over the whole panel (summary of MIC data); format: cell-based, Candida and Aspergillus strains; settings: over the fungal strains tested, based on MIC data of Table 1
Protocol: as §1
as §3, with “The MIC values of compounds 7a-24c against yeast cells (strains A-J) were determined in 96-well plates as described in the CLSI document M27-A3 with minor modifications. A” for “A”, “experiments. The MIC values for compounds 7a-24c and CAS were defined as the minimum drug concentration that yielded complete inhibition (also known as MIC-0).” for “experiments.”
(§4) Similarly, the MIC values of compounds 7a-24c, as well as that of the two control drugs against filamentous fungi (strains K-M) were determined as previously described in CLSI document M38-A2. Spores were harvested from sporulating cultures growing on potato dextrose agar (PDA) by filtration through sterile glass wool and enumerated by using a hemocytometer to obtain the desired inoculum size. […] Spore suspensions were added to the wells to afford a final concentration of 5×10^5 CFU/mL. The plates were incubated at 35° C. for 48 h. The MIC values of compounds 7a-24c and CAS against filamentous fungi were based on the complete inhibition of growth when compared to the growth control (MIC-0). […] Each test was performed in triplicate.

[4] = system: Aspergillus flavus ATCC MYA-3631 (strain K); experiment: MIC determination against filamentous fungi (CLSI M38-A2); format: cell-based; settings: Aspergillus flavus, 48 h, MIC-0, 48 h at 35° C., read-out: MIC
Protocol: as §1, §2, §4

[5] = system: Aspergillus nidulans ATCC 38163 (strain L); experiment: as above; format: cell-based; settings: Aspergillus nidulans, ATCC38163, 48 h, MIC-0, 48 h at 35° C., read-out: MIC
Protocol: as §1, §2, §4

[6] = system: Aspergillus terreus ATCC MYA-3633 (strain M); experiment: as above; format: cell-based; settings: Aspergillus terreus, 48 h, MIC-0, 48 h at 35° C., read-out: MIC
Protocol: as §1, §2, §4

[7] = system: Candida parapsilosis ATCC 22019 (strain J); experiment: MIC determination, in vitro antifungal assay (CLSI M27-A3); format: cell-based; settings: Lodderomyces parapsilosis, ATCC22019, 48 h, strain J; MIC-0; 48 h at 35° C.; read-out: MIC
Protocol: as §1, §2
as §3, with “The MIC values of compounds 7a-24c against yeast cells (strains A-J) were determined in 96-well plates as described in the CLSI document M27-A3 with minor modifications. A” for “A”, “experiments. The MIC values for compounds 7a-24c and CAS were defined as the minimum drug concentration that yielded complete inhibition (also known as MIC-0).” for “experiments.”

[8] = system: Candida albicans ATCC 10231(R) (strain A); experiment: as above; format: cell-based; settings: Candida albicans, ATCC10231, 48 h, MIC-0 (no visible growth), 48 h at 35° C., read-out: MIC
Protocol: as §1, §2
as §3, with “The MIC values of compounds 7a-24c against yeast cells (strains A-J) were determined in 96-well plates as described in the CLSI document M27-A3 with minor modifications. A” for “A”, “experiments. The MIC values for compounds 7a-24c and CAS were defined as the minimum drug concentration that yielded complete inhibition (also known as MIC-0).” for “experiments.”

[9] = system: Candida krusei ATCC 6258 (strain I); experiment: as above; format: cell-based; settings: Pichia kudriavzevii, ATCC6258, 48 h, MIC-0, 48 h at 35° C., read-out: MIC
Protocol: as §1, §2, §3

[10] = system: Candida glabrata ATCC 2001 (strain H); experiment: as above; format: cell-based; settings: Nakaseomyces glabratus, ATCC2001, 48 h, MIC-0, 48 h at 35° C., read-out: MIC
Protocol: as §1, §2, §3

[11] = system: C. albicans ATCC MYA-1237(R) (strain F); experiment: as above; format: cell-based, Candida albicans; settings: Candida albicans, 48 h, MIC-0, 48 h at 35° C., read-out: MIC
Protocol: as §1, §2
as §3, with “The MIC values of compounds 7a-24c against yeast cells (strains A-J) were determined in 96-well plates as described in the CLSI document M27-A3 with minor modifications. A” for “A”, “experiments. The MIC values for compounds 7a-24c and CAS were defined as the minimum drug concentration that yielded complete inhibition (also known as MIC-0).” for “experiments.”

[12] = system: C. albicans ATCC MYA-2310(S) (strain E); experiment: as above; format: cell-based, Candida albicans; settings: Candida albicans, 48 h, MIC-0, 48 h at 35° C., read-out: MIC
Protocol: as §1, §2
as §3, with “The MIC values of compounds 7a-24c against yeast cells (strains A-J) were determined in 96-well plates as described in the CLSI document M27-A3 with minor modifications. A” for “A”, “experiments. The MIC values for compounds 7a-24c and CAS were defined as the minimum drug concentration that yielded complete inhibition (also known as MIC-0).” for “experiments.”

[13] = system: C. albicans ATCC 64124(R) (strain B); experiment: as above; format: cell-based, Candida albicans; settings: Candida albicans, ATCC64124, 48 h, strain B; MIC-0; 48 h at 35° C.; read-out: MIC
Protocol: as §1, §2
as §3, with “The MIC values of compounds 7a-24c against yeast cells (strains A-J) were determined in 96-well plates as described in the CLSI document M27-A3 with minor modifications. A” for “A”, “experiments. The MIC values for compounds 7a-24c and CAS were defined as the minimum drug concentration that yielded complete inhibition (also known as MIC-0).” for “experiments.”

[14] = system: C. albicans ATCC 90819(R) (strain D); experiment: as above; format: cell-based, Candida albicans; settings: Candida albicans, ATCC90819, 48 h, MIC-0, 48 h at 35° C., read-out: MIC
Protocol: as §1, §2
as §3, with “The MIC values of compounds 7a-24c against yeast cells (strains A-J) were determined in 96-well plates as described in the CLSI document M27-A3 with minor modifications. A” for “A”, “experiments. The MIC values for compounds 7a-24c and CAS were defined as the minimum drug concentration that yielded complete inhibition (also known as MIC-0).” for “experiments.”

[15] = system: murine red blood cells (mRBCs); settings: for Percentage of hemolysis (±SDEV): mouse, 60 min
Protocol: Thus, the hemolytic activity for these bishydrazones was investigated against murine red blood cells (mRBCs).
Murine red blood cells (mRBCs) were prepared by suspending 1 mL of murine blood in 3 mL of PBS prior to centrifugation at 1,000 rpm for 5 min. The mRBCs were washed four times in PBS and resuspended in the same buffer to a final concentration of 10^7 mRBC/mL. […] The tubes were incubated at 37° C. for 60 min. […] Eppendorf tubes containing 200 μL of ddH2O and 2 μL of 1% v/v Triton™ X-100 served as negative (blank) and positive controls, respectively. The percentage of hemolysis was calculated using the following equation: % hemolysis=[(absorbance of sample)−(absorbance of blank)]×100/(absorbance of positive control).

SMILES: N#Cc1ccc(N/N=C/c2ccc(-c3ccc(/C=N/Nc4ccc(C#N)cc4)cc3)cc2)cc1 [Compound 13b]
- MIC [1]: > 31.3 µg/mL
- MIC [2]: 31.3 µg/mL (≈ 71.1 µM)
- antifungal activity (in words) [3]: inactive
- MIC [4]: > 31.3 µg/mL
- MIC [5]: > 31.3 µg/mL
- MIC [6]: 31.3 µg/mL (≈ 71.1 µM)
- MIC [7]: > 31.3 µg/mL
- MIC [8]: > 31.3 µg/mL
- MIC [9]: > 31.3 µg/mL
- MIC [10]: > 31.3 µg/mL
- MIC [11]: > 31.3 µg/mL
- MIC [12]: > 31.3 µg/mL
- MIC [13]: > 31.3 µg/mL
- MIC [14]: > 31.3 µg/mL

SMILES: CC(C)Oc1ccc(N/N=C/c2ccc(-c3ccc(/C=N/Nc4ccc(OC(C)C)cc4)cc3)cc2)cc1 [Compound 16b]
- MIC [1]: > 31.3 µg/mL
- MIC [2]: > 31.3 µg/mL
- antifungal activity (in words) [3]: inactive
- MIC [4]: > 31.3 µg/mL
- MIC [5]: > 31.3 µg/mL
- MIC [6]: > 31.3 µg/mL
- MIC [7]: > 31.3 µg/mL
- MIC [8]: > 31.3 µg/mL
- MIC [9]: > 31.3 µg/mL
- MIC [10]: > 31.3 µg/mL
- MIC [11]: > 31.3 µg/mL
- MIC [12]: > 31.3 µg/mL
- MIC [13]: > 31.3 µg/mL
- MIC [14]: > 31.3 µg/mL

SMILES: N=C(N)N/N=C/c1ccc(-c2cccc(/C=N/NC(=N)N)c2)cc1 [Compound 24a]
- MIC [1]: 3.9 µg/mL (≈ 12.1 µM)
- MIC [2]: > 31.3 µg/mL
- MIC [4]: > 31.3 µg/mL
- MIC [5]: 7.8 µg/mL (≈ 24.2 µM)
- MIC [6]: 7.8 µg/mL (≈ 24.2 µM)
- hemolytic activity (in words) [15]: lack of hemolytic activity
- Percentage of hemolysis (±SDEV) ([15]; 0.975 μg/mL): 0%
- Percentage of hemolysis (±SDEV) ([15]; 1.95 μg/mL): 1.1 ± 2.2%
- Percentage of hemolysis (±SDEV) ([15]; 3.9 μg/mL): 1.2 ± 1.7%
- Percentage of hemolysis (±SDEV) ([15]; 7.8 μg/mL): 2.3 ± 0.5%
- Percentage of hemolysis (±SDEV) ([15]; 15.6 μg/mL): 3.8 ± 0.5%
- Percentage of hemolysis (±SDEV) ([15]; 31.3 μg/mL): 3.8 ± 1.7%
- MIC [7]: 1.95 µg/mL (≈ 6.05 µM)
- MIC [8]: 1.95 to 3.9 µg/mL (≈ 6.05 to 12.1 µM)
- MIC [9]: 1.95 µg/mL (≈ 6.05 µM)
- MIC [10]: 3.9 µg/mL (≈ 12.1 µM)
- MIC [11]: 7.8 µg/mL (≈ 24.2 µM)
- MIC [12]: 3.9 µg/mL (≈ 12.1 µM)
- MIC [13]: 3.9 µg/mL (≈ 12.1 µM)
- MIC [14]: > 31.3 µg/mL
